Assays:
Glucocorticoid receptor [1] = molecular target: T1, Glucocorticoid receptor (Homo sapiens, UniProt P04150); experiment: Displacement of fluorescent-labeled Dexamethasone from GR by fluorescent polarization assay
T1 sequence (P04150 whole entry): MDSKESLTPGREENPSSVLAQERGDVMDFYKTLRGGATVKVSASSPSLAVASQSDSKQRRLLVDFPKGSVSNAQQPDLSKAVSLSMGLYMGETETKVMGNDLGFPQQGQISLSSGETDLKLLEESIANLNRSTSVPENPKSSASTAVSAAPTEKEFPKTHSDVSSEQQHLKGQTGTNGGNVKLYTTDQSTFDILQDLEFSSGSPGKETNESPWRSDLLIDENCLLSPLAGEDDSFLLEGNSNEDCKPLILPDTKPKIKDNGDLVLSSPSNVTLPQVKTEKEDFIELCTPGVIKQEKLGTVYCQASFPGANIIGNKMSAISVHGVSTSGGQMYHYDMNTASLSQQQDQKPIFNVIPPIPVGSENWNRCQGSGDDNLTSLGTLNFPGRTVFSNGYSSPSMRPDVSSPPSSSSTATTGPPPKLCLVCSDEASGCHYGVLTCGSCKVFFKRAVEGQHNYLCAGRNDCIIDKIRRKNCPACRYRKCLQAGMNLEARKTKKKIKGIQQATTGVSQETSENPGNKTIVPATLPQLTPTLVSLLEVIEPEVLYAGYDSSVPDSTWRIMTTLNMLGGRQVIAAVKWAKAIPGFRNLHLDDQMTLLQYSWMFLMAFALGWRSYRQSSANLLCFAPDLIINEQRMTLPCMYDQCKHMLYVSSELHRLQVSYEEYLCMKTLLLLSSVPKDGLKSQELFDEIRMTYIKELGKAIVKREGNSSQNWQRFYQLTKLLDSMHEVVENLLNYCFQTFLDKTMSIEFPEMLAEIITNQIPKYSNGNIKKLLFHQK

Glucocorticoid receptor [2] = molecular target: T1, Glucocorticoid receptor; experiment: Activity at GR in human A549 cells by NF-kappaB transrepression assay; assay type: cell-based
Progesterone receptor = molecular target: T2, Progesterone receptor (Homo sapiens, UniProt P06401); experiment: Binding affinity to PR
T2 sequence (P06401 whole entry): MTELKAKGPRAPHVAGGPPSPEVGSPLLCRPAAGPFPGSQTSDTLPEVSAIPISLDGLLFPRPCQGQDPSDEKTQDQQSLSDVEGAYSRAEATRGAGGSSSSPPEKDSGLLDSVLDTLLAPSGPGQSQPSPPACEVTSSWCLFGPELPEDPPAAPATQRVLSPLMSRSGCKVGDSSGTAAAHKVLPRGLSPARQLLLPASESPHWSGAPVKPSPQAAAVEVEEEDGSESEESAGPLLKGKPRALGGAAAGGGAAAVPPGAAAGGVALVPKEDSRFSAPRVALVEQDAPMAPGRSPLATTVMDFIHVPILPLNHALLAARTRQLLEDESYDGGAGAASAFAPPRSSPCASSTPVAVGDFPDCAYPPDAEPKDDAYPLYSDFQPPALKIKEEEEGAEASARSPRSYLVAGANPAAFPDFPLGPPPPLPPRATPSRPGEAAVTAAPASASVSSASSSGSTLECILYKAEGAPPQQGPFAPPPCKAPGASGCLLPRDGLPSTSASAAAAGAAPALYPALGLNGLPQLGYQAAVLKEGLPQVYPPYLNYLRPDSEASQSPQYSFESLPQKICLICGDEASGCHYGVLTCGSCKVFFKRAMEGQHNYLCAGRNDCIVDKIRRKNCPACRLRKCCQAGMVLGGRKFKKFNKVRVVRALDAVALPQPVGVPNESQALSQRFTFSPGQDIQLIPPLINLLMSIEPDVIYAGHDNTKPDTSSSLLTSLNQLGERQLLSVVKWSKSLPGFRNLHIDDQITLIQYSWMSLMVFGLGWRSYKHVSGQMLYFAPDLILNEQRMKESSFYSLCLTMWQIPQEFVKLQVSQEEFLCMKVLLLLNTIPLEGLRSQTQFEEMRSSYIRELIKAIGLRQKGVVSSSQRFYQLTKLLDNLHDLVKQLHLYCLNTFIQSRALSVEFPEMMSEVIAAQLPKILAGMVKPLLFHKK

Glucocorticoid receptor [3] = molecular target: T1, Glucocorticoid receptor; experiment: Agonist activity at GR in human A549 cells transfected with luciferase gene linked to MMTV promoter assessed as luciferase transactivation activity after 24 hrs; assay type: functional, cell-based
Androgen receptor = molecular target: T3, Androgen receptor (Homo sapiens, UniProt P10275)
T3 sequence (P10275 whole entry): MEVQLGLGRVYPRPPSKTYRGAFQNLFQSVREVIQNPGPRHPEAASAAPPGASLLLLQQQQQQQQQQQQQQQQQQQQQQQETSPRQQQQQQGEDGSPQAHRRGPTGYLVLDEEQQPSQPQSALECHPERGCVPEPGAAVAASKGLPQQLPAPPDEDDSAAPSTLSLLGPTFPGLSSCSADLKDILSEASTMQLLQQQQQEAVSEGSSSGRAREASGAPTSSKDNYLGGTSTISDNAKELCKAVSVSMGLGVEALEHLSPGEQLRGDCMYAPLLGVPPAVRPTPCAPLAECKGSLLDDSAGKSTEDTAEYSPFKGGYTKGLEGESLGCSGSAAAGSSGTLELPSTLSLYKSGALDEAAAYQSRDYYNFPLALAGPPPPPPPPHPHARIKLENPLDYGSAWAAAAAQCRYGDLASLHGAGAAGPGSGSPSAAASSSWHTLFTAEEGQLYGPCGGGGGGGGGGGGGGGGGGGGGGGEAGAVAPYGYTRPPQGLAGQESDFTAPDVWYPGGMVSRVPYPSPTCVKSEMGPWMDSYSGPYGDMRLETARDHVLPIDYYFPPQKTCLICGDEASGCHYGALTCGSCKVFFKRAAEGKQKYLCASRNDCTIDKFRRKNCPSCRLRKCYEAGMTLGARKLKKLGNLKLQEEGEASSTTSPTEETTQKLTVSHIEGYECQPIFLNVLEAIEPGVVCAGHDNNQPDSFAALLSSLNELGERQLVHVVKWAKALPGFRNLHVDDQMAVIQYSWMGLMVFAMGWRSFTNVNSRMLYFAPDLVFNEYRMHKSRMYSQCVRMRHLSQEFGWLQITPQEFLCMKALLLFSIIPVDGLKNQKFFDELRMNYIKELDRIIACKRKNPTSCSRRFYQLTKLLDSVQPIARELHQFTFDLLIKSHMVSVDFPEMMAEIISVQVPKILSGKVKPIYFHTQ

[4] = Antiinflammatory activity in human primary synovial fibroblasts assessed as inhibition of IL1-induced IL6 release after 18 hrs by MSD technology; assay type: functional
[5] = Antiinflammatory activity in human primary synovial fibroblasts assessed as inhibition of IL1-induced IL8 release after 18 hrs by MSD technology; assay type: functional
[6] = Antiinflammatory activity in human primary synovial fibroblasts assessed as inhibition of IL1-induced MMP1 release after 18 hrs by MSD technology; assay type: functional
[7] = Toxicity in human skeletal muscle cells assessed as increase in glutamine synthase mRNA level after 18 hrs by PCR
Hepatocyte = experiment: Toxicity in human hepatocytes assessed as increase in PEPCK mRNA level after 18 hrs by PCR; assay type: cell-based
[8] = Plasma concentration in mouse bearing mouse NIH-3T3 cells integrated with MMTV reporter gene at 10 mg/kg, po after 1 hr; assay type: ADME, organism-based, NIH3T3; design: dose 10 mg/kg, route oral
[9] = Relative plasma concentration in mouse assessed as ratio of plasma concentration in mouse at 10 mg/kg, po to IC50 for NF-kappaB transrepression activity in A549 cells expressing MMTV reporter gene; assay type: ADME, organism-based; design: dose 10 mg/kg, route oral; settings: in vivo
[10] = Relative fraction unbound in mouse assessed as ratio of fraction unbound in mouse at 10 mg/kg, po to IC50 for NF-kappaB transrepression activity in A549 cells expressing MMTV reporter gene; assay type: ADME, organism-based; design: dose 10 mg/kg, route oral; settings: in vivo
[11] = Plasma concentration in mouse bearing mouse NIH-3T3 cells integrated with MMTV reporter gene at 1 mg/kg, po after 1 hr; assay type: ADME, organism-based, NIH3T3; design: dose 1 mg/kg, route oral
[12] = Relative plasma concentration in mouse assessed as ratio of plasma concentration in mouse at 1 mg/kg, po to IC50 for NF-kappaB transrepression activity in A549 cells expressing MMTV reporter gene; assay type: ADME, organism-based; design: dose 1 mg/kg, route oral; settings: in vivo
[13] = Relative fraction unbound in mouse assessed as ratio of fraction unbound in mouse at 1 mg/kg, po to IC50 for NF-kappaB transrepression activity in A549 cells expressing MMTV reporter gene; assay type: ADME, organism-based; design: dose 1 mg/kg, route oral; settings: in vivo
[14] = Plasma concentration in mouse bearing mouse NIH-3T3 cells integrated with MMTV reporter gene at 0.1 mg/kg, po after 1 hr; assay type: ADME, organism-based, NIH3T3; design: dose 0.1 mg/kg, route oral
[15] = Relative plasma concentration in mouse assessed as ratio of plasma concentration in mouse at 0.1 mg/kg, po to IC50 for NF-kappaB transrepression activity in A549 cells expressing MMTV reporter gene; assay type: ADME, organism-based; design: dose 0.1 mg/kg, route oral; settings: in vivo
[16] = Relative fraction unbound in mouse assessed as ratio of fraction unbound in mouse at 0.1 mg/kg, po to IC50 for NF-kappaB transrepression activity in A549 cells expressing MMTV reporter gene; assay type: ADME, organism-based; design: dose 0.1 mg/kg, route oral; settings: in vivo
[17] = Plasma concentration in mouse bearing mouse NIH-3T3 cells integrated with MMTV reporter gene at 0.01 mg/kg, po after 1 hr; assay type: ADME, organism-based, NIH3T3; design: dose 0.01 mg/kg, route oral
[18] = Relative plasma concentration in mouse assessed as ratio of plasma concentration in mouse at 0.01 mg/kg, po to IC50 for NF-kappaB transrepression activity in A549 cells expressing MMTV reporter gene; assay type: ADME, organism-based; design: dose 0.01 mg/kg, route oral; settings: in vivo
[19] = Relative fraction unbound in mouse assessed as ratio of fraction unbound in mouse at 0.01 mg/kg, po to IC50 for NF-kappaB transrepression activity in A549 cells expressing MMTV reporter gene; assay type: ADME, organism-based; design: dose 0.01 mg/kg, route oral; settings: in vivo
Mus musculus [20] = experiment: Inhibition of IL1-induced circulating IL6 release in mouse at 10 mg/kg, po; assay type: functional
Mus musculus [21] = experiment: Inhibition of IL1-induced circulating IL6 release in mouse at 1 mg/kg, po; assay type: functional
Mus musculus [22] = experiment: Inhibition of IL1-induced circulating IL6 release in mouse at 0.1 mg/kg, po; assay type: functional
Mus musculus [23] = experiment: Inhibition of IL1-induced circulating IL6 release in mouse at 0.01 mg/kg, po; assay type: functional

## CCCN(c1ccccc1)S(=O)(=O)c1ccc(-c2ccc3c(cnn3-c3ccc(F)cc3)c2)c(C(F)(F)F)c1
Glucocorticoid receptor [1]
  IC50: 0.0158 µM
Glucocorticoid receptor [2]
  IC50: 0.316 µM
Progesterone receptor
  IC50: > 10 µM
Glucocorticoid receptor [3]
  EC50: 0.316 µM
Androgen receptor
  IC50: > 10 µM

## CCN(c1ccccc1)S(=O)(=O)c1ccc(-c2ccc3c(cnn3-c3ccc(F)cc3)c2)c(C(F)(F)F)c1
Glucocorticoid receptor [1]
  IC50: 0.0158 µM
Glucocorticoid receptor [2]
  IC50: 0.126 µM
Progesterone receptor
  IC50: > 10 µM
Glucocorticoid receptor [3]
  EC50: 0.2 µM
Androgen receptor
  IC50: > 10 µM

## O=S(=O)(Nc1ccc(-c2ccc3c(cnn3-c3ccc(F)cc3)c2)c(C(F)(F)F)c1)c1cccc(C(F)(F)F)c1
Glucocorticoid receptor [1]
  IC50: 0.0501 µM
Glucocorticoid receptor [2]
  IC50: 0.0631 µM
Progesterone receptor
  IC50: > 10 µM
Glucocorticoid receptor [3]
  EC50: 0.2 µM
Androgen receptor
  IC50: 3.98 µM

## CC(C)S(=O)(=O)Nc1ccc(-c2ccc3c(cnn3-c3ccc(F)cc3)c2)c(C(F)(F)F)c1
Glucocorticoid receptor [1]
  IC50: 0.0126 µM
Glucocorticoid receptor [2]
  IC50: 0.0501 µM
Progesterone receptor
  IC50: > 10 µM
Glucocorticoid receptor [3]
  EC50: 0.158 µM
Androgen receptor
  IC50: > 10 µM

## CN(c1ccccc1)S(=O)(=O)c1ccc(-c2ccc3c(cnn3-c3ccc(F)cc3)c2)c(C(F)(F)F)c1
Glucocorticoid receptor [1]
  IC50: 0.0126 µM
Glucocorticoid receptor [2]
  IC50: 0.398 µM
Progesterone receptor
  IC50: 0.794 µM
Glucocorticoid receptor [3]
  EC50: 0.631 µM
Androgen receptor
  IC50: > 10 µM

## CCCCN(c1ccccc1)S(=O)(=O)c1ccc(-c2ccc3c(cnn3-c3ccc(F)cc3)c2)c(C(F)(F)F)c1
Glucocorticoid receptor [1]
  IC50: 0.0251 µM
Glucocorticoid receptor [2]
  IC50: > 10 µM
Progesterone receptor
  IC50: > 10 µM
Glucocorticoid receptor [3]
  EC50: > 10 µM
Androgen receptor
  IC50: > 10 µM

## C[C@@H]1C[C@H]2[C@@H]3CCC4=CC(=O)C=C[C@]4(C)[C@@]3(F)[C@@H](O)C[C@]2(C)[C@@]1(O)C(=O)CO [DEXAMETHASONE]
[4]
  IC50: 0.000631 µM
[5]
  IC50: 0.000501 µM
[6]
  IC50: 0.000316 µM
[7]
  Activity: Toxic
Hepatocyte
  Activity: Toxic
[8]
  concentration at 1 h: 17700 nM
[9]
  fold change (FC): 2944
[10]
  fold change (FC): 870
[11]
  concentration at 1 h: 1800 nM
[12]
  fold change (FC): 300
[13]
  fold change (FC): 86
[14]
  concentration at 1 h: 236 nM
[15]
  fold change (FC): 40
[16]
  fold change (FC): 8
[17]
  concentration at 1 h: 44 nM
[18]
  fold change (FC): 7
[19]
  fold change (FC): 0.4
Mus musculus [20]
  inhibition in vivo at 10 mg/kg: 83%
Mus musculus [21]
  inhibition in vivo at 1 mg/kg: 88%
Mus musculus [22]
  inhibition in vivo at 0.1 mg/kg: 67%
Mus musculus [23]
  inhibition in vivo at 0.01 mg/kg: 24%

From ChEMBL document CHEMBL1155531, “Structure guided design of 5-arylindazole glucocorticoid receptor agonists and antagonists” (J Med Chem, 2010)
